Paper PMC6362118, “Pharmacophore-guided discovery of CDC25 inhibitors causing cell cycle arrest and tumor regression” (Scientific Reports, 2019)
Like-named read-outs stand apart in the source and are kept apart here.

Tests used:
HeLa cells [1] = assay: Flow cytometric analysis of cell cycle progression (DNA content) in HeLa cells; format: cell-based; conditions: for progression through S-phase: HeLa, 10 µM added at release from double-thymidine block (early S-phase); for effect on cell cycle distribution (DNA content): asynchronous HeLa cells, 10 μM, 15 h; for effect on the G2/M transition: double-thymidine synchronized HeLa, 10 μM added 5 h upon release, analysed 12 h post-release
Method: Reactions were started by addition of the substrate OMFP (0.1 mM). Assays 69 were carried out at room temperature in duplicate or triplicate using transparent-bottom, 70 V-shaped 96 well plates and read at defined intervals on a Molecular Devices 71 SpectraMax microplate reader (ex: 490 nm / em: 525 nm). IC50 and kinetic parameters 72 calculated from Lineweaver-Burk double-reciprocal plots of the data were obtained using 73 GraphPad Prism software. 74 75 Cell culture - Wild-type HeLa and Kyoto HeLa cells stably expressing mCherry-H2B 76 were maintained in DMEM+L-Glutamine (Gibco, Life Technologies, USA) 77 supplemented with 5% fetal calf serum (FCS) (Gibco) and penicillin-streptomycin (100 […] A549 and Colo741 were grown and maintained like HeLa 79 cells but with 10% FCS. HCT116 were maintained in McCoy's medium supplemented 80 with 10% FCS and penicillin-streptomycin. U2OS-Tet-OFF cells expressing HA-CDC25 81 were grown and maintained in DMEM+L-Glutamine, 10% Tet-free FCS and penicillin- 82 streptomycin in the presence or the absence of 4 μg/ml tetracycline (Sigma, T7660). 83 84 Cell synchronization - Cell synchronization was performed by double thymidine block- 85 release protocol 2 or nocodazole treatment 3 and verified by flow cytometry. 86 87 Cell viability assays - Compounds viability upon 48h treatment with the compounds was 88 assessed as described 4. Data were plotted with Prism 7® and analyzed by non-linear 89 regression. Comparison of single curve fitting to all data set within an experiment was 90 performed with the extra sum-of-squares F-test to determine P values. 91 92 Western blotting - Cell lysis and immunoblot analysis were performed as previously 93 described 5. […] Cells were washed with PBS, resuspended […] To 100 quantify phosphorylation of CDK1 at Tyr15 and H2AX at S139, cells were harvested and 101 examined as described 6. Samples were measured on an AttuneTM NxT Cytometer 102 (ThermoFisher Scientific, Carlsbad, CA, USA) and data were analyzed with FlowJo® 103 software v10 (FlowJo, LLC, Ashland, OR, USA). 104 105 Real Time qRT-PCR - Organoids were lysed in Tri-Reagent (Sigma) as previously 106 described 7 and total RNA was isolated as described by manufacturer's instructions. For […] 108 High Fidelity cDNA Synthesis kit (Roche). Real-time quantitative PCR reactions were 109 performed in three independent biological replicates, each with technical triplicate, using 110 the Applied Biosystems SYBR Green Kit and monitored by the ABI Prism 7900HT 111 system (Applied Biosystem). The following primers were used: 112 Lgr5: Forward [NT] and Reverse 5'- […] 114 Lysozyme: Forward [NT] and Reverse 5'- 115 [NT]3' 116 Cryptdin: Forward [NT] and Reverse 5'- 117 [NT]-binding protein (TBP): Forward [NT] and 119 Reverse [NT] 120 […] 122 amplification curves and the melting temperature analysis of the final amplification […] 4

CDC25A = target: T1, CDC25A (Homo sapiens, UniProt P30304); assay: Enzymatic assay (OMFP substrate) on recombinant CDC25A; format: biochemical; conditions: for remaining activity at 20 µM: compound 20 µM, relative to DMSO control; for IC50: dose-response on recombinant CDC25A
T1 construct: GST (pGEX vector) (N); made in house; host or cells: E. coli BL21
T1 sequence (P30304 1-524): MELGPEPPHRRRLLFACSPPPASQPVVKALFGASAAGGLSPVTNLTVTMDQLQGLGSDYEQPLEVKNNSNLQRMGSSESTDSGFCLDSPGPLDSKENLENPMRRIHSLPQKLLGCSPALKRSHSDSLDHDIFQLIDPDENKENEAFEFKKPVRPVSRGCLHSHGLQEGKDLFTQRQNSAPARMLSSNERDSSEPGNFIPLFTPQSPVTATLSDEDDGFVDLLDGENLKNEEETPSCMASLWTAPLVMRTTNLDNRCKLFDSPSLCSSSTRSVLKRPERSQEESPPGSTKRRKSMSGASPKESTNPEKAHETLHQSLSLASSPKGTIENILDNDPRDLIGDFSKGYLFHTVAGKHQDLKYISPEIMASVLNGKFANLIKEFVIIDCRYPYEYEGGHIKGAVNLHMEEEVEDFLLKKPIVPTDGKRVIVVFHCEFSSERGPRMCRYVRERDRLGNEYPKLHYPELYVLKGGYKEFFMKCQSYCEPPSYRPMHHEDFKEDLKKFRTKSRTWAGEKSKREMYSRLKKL
Method: 57 UPD compounds were dissolved in DMSO at 10 mM stock concentration and stored in
60 Expression and purification of CDC25 phosphatases - CDC25A (kind gift of I.
61 Hoffmann, Heidelberg, Germany), CDC25B and CDC25C (kind gift of B. Gabrielli,
62 Queensland, Australia) in pGEX were expressed in E. coli BL21 cells and purified on 1
63 ml Glutathione Sepharose 4 Fast Flow columns as described 1.
65 Enzymatic assays - CDC25A, CDC25B and CDC25C were appropriately diluted in 10
66 mM Tris-HCl pH 8.0, 50 mM NaCl and assayed in 20 mM Tris-HCl pH 8.0, 75 mM
67 NaCl, 0.5 mM EGTA, 1 mM DTT, 0.1 mg/ml BSA and defined concentrations of
68 compounds. Reactions were started by addition of the substrate OMFP (0.1 mM). Assays
69 were carried out at room temperature in duplicate or triplicate using transparent-bottom,
70 V-shaped 96 well plates and read at defined intervals on a Molecular Devices
71 SpectraMax microplate reader (ex: 490 nm / em: 525 nm). IC50 and kinetic parameters
72 calculated from Lineweaver-Burk double-reciprocal plots of the data were obtained using
73 GraphPad Prism software. […]

HeLa cells [2] = assay: Cell viability assay on HeLa cells; format: cell-based; conditions: Homo sapiens, 48h treatment
Method: 75 Cell culture - Wild-type HeLa and Kyoto HeLa cells stably expressing mCherry-H2B
76 were maintained in DMEM+L-Glutamine (Gibco, Life Technologies, USA)
77 supplemented with 5% fetal calf serum (FCS) (Gibco) and penicillin-streptomycin (100
78 U/ml - 100 µg/ml) (Gibco). […]
87 Cell viability assays - Compounds viability upon 48h treatment with the compounds was
88 assessed as described 4. Data were plotted with Prism 7® and analyzed by non-linear
89 regression. Comparison of single curve fitting to all data set within an experiment was
90 performed with the extra sum-of-squares F-test to determine P values. […]

[3] = read-out: % remaining activity ± SD (Table S1, first round of selection)

What does the source list for `COc1cccc(SC2=CC(=O)c3cccc(O)c3C2=O)c1` [UPD-795, 2-(3-methoxyphenylthio)-8-hydroxynaphthalene-1,4-dione]?
progression through S-phase (HeLa cells [1]): progression through S-phase was effectively held in check; effect on cell cycle distribution (DNA content) (HeLa cells [1]): increase of the G1 population; remaining activity at 20 µM (CDC25A; read-out: % remaining activity ± SD (Table S2, second round of selection)): 0%; IC50 (CDC25A): 1250 nM; mechanism of enzyme inhibition (CDC25A; kinetic analysis, mixed-model inhibition equation): mixed mechanism of enzyme inhibition; Ki (CDC25A; mixed-model inhibition equation): 1180 ± 400 nM

What does the source list for `O=C1C(c2ccc(O)cc2O)=CC(=O)c2c(O)cccc21` [UPD-176, 5-hydroxy-2-(2,4-dihydroxyphenyl)naphthalene-1,4-dione]?
effect on the G1/S transition (HeLa cells [1]; HeLa synchronized at G2/M, 10 μM added in mid-G1, analysed 12 h post-release): effectively blocked cells in G1; progression through S-phase (HeLa cells [1]): progression through S-phase was effectively held in check; effect on cell cycle distribution (DNA content) (HeLa cells [1]): accumulation of cells at G2/M; effect on the G2/M transition (HeLa cells [1]): accretion of the G2/M peak; IC50 (HeLa cells [2]): 1080 nM; remaining activity at 20 µM (CDC25A; [3]): 0%

`O=C1C=C(c2ccc(O)cc2O)C(=O)c2c(O)cccc21` [UPD-140, 2-(2′,4′-dihydroxyphenyl)-8-hydroxy-1,4-naphthoquinone] was tested. Which “effect on the G2/M transition” value (HeLa cells [1]) did it give?
The value was “accretion of the G2/M peak”.

And the IC50 (HeLa cells [2])?
The IC50 was 1200 nM.

What about the remaining activity at 20 µM (CDC25A; [3]) of the same molecule?
The remaining activity at 20 µM was 0.1 ± 0.1%.

And the IC50 (CDC25A)?
Its IC50 is 1420 nM.
